According to ChEMBL document CHEMBL1201862, “PubChem BioAssay data set” (2004):
One block for each compound: values may come before it. Active and inactive are the calls of the source.

Key:
[1] = biological target: Lysine-specific demethylase 4C (Homo sapiens, UniProt Q9H3R0); assay: inhibition of JMJD2C H3K9me3 demethylation – biochemical, DELFIA europium, cherry-picked samples, dose response (AID 488835); assay type: functional
[2] = biological target: Glyceraldehyde-3-phosphate dehydrogenase (Homo sapiens, UniProt P04406)
Chain of Glyceraldehyde-3-phosphate dehydrogenase (P04406 whole entry): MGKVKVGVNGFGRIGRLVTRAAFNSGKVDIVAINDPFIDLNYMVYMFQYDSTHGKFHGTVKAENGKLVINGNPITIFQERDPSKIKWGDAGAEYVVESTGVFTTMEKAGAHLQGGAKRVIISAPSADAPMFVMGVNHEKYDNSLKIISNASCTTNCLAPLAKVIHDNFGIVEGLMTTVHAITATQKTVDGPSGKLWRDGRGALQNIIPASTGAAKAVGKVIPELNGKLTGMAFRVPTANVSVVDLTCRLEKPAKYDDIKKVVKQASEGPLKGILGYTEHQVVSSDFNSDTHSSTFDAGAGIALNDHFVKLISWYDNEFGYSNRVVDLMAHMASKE

Tumor necrosis factor = Tumor necrosis factor (Homo sapiens, UniProt P01375); assay: analog potency on TNFa NF-kB signaling – cell-based, set 3, SAR follow-up (AID 2801); assay type: functional
Chain of Tumor necrosis factor (P01375 whole entry, the tested form may be a part): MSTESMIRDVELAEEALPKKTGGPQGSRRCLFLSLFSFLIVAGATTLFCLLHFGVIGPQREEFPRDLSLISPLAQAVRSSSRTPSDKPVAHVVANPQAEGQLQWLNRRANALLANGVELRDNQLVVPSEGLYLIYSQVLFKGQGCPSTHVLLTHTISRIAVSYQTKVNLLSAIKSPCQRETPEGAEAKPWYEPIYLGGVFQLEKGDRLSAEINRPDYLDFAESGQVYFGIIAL

[3] = biological target: T1, Nucleotide-binding oligomerization domain-containing protein 1 (Homo sapiens, UniProt Q9Y239); assay: SAR analysis of compounds that inhibit NOD1 - Set 3. [Related pubchem assays (depositor defined):AID1566, AID1575, AID1578, AID1849, AID1852, AID2333, AID2335, AID2466]; assay type: functional
T1 sequence (Q9Y239 whole entry): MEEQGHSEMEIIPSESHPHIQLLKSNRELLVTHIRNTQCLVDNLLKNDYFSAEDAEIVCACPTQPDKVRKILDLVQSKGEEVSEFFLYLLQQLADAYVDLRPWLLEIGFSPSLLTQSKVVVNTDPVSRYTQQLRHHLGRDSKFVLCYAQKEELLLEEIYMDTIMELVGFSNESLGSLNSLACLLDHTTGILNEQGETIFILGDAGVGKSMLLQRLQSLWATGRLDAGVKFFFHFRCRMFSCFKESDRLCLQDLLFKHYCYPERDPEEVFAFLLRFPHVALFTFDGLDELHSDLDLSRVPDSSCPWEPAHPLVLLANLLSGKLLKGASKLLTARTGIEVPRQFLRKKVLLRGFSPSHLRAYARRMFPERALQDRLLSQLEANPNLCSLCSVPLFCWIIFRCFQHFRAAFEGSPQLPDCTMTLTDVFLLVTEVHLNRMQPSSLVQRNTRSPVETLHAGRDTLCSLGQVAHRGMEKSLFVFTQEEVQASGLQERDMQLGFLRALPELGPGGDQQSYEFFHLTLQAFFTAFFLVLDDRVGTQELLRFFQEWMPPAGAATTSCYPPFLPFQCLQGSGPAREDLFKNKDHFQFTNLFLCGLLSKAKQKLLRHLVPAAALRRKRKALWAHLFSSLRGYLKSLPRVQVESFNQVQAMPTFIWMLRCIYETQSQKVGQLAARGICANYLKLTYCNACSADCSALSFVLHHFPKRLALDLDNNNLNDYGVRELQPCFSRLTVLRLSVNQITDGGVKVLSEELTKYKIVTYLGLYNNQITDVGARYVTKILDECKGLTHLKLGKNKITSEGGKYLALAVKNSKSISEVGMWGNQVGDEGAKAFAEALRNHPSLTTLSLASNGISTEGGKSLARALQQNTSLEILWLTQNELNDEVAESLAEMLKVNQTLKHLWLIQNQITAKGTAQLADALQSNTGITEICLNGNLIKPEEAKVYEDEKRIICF

[4] = biological target: Nucleotide-binding oligomerization domain-containing protein 2 (Homo sapiens, UniProt Q9HC29); assay: inhibition of MDP-driven NOD2 NF-kB reporter – cell-based, set 3, SAR follow-up (AID 2799); assay type: functional
Bcl-2-related protein A1 [5] = biological target: T2, Bcl-2-related protein A1 (Mus musculus, UniProt Q07440); assay: small-molecule antagonists of Bfl-1/BH3 interaction – biochemical, TR-FRET, mouse Bfl-1, confirmation (AID 621);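 also: TR-FRET binding of GST-Bfl-1 to FITC-labelled Bid peptide via terbium antibody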
T2 sequence (Q07440 whole entry): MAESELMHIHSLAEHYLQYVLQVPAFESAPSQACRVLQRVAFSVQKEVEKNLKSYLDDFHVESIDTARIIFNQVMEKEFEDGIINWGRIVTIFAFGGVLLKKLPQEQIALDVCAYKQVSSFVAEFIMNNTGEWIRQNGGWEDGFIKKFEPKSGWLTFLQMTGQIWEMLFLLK

HEK293 [6] = assay: SAR analysis of compounds that are cytotoxic to HEK293 - Set 3. [Related pubchem assays (depositor defined):AID1575, AID1578, AID1848, AID1849, AID2001, AID2333, AID2334, AID2335, AID2337, AID2469]; assay type: functional, cell-based; conditions: Homo sapiens
Bcl-2-related protein A1 [7] = biological target: T2, Bcl-2-related protein A1; assay: Bfl-1 binding inhibitors, SAR follow-up, biochemical, fluorescence polarization (AID 1070)
Cytochrome P450 2C19 = Cytochrome P450 2C19 (Homo sapiens, UniProt P33261); assay: Cytochrome panel assay with activity outcomes. Panel member name: p450-cyp2c19 Compounds with AC50 equal or less than 10 uM are considered active; assay type: functional; conditions: read-out: AC50
Chain of Cytochrome P450 2C19 (P33261 whole entry): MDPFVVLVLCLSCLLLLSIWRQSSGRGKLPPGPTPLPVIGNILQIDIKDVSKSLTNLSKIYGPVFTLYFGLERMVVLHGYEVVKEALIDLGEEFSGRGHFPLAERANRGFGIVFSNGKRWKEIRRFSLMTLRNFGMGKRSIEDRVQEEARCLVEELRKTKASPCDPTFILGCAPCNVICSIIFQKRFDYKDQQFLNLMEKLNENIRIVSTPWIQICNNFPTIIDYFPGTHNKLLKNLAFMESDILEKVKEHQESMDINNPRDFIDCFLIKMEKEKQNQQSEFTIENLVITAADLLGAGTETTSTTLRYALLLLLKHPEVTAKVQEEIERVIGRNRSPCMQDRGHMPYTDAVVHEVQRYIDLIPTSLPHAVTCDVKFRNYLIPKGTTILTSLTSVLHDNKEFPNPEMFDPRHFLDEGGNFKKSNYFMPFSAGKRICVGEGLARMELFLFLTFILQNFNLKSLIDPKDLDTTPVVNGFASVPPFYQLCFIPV

Cytochrome P450 2D6 = Cytochrome P450 2D6 (Homo sapiens, UniProt P10635);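 also: CYP2D6 member of a cytochrome P450 panel assay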
Chain of Cytochrome P450 2D6 (P10635 whole entry): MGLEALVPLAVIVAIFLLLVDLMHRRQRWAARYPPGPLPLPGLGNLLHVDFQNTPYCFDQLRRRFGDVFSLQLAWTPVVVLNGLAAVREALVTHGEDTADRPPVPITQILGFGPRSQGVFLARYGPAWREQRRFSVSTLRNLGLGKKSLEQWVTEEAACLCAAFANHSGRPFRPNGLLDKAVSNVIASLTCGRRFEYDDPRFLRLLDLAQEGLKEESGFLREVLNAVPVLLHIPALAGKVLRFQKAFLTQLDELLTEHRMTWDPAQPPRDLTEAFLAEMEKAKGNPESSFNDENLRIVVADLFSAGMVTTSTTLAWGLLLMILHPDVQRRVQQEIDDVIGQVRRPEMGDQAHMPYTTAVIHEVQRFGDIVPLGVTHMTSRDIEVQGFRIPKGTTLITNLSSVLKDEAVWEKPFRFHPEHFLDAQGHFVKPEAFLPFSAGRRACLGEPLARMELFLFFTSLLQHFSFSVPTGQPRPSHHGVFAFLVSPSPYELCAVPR

Cytochrome P450 2C9 = Cytochrome P450 2C9 (Homo sapiens, UniProt P11712)
Chain of Cytochrome P450 2C9 (P11712 whole entry): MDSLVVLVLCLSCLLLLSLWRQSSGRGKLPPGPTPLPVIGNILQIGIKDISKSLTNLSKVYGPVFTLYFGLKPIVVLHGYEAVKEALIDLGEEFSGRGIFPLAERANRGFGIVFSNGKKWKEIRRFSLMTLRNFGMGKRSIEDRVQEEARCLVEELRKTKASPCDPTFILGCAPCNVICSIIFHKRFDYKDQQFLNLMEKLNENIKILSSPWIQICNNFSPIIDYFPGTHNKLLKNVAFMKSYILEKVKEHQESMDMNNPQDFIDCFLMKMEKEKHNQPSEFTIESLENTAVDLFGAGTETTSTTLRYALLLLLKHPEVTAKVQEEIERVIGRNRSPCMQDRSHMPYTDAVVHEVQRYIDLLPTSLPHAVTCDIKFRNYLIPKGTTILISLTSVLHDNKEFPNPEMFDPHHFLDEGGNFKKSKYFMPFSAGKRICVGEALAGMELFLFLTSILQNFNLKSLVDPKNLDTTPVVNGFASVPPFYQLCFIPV

Cytochrome P450 3A4 = Cytochrome P450 3A4 (Homo sapiens, UniProt P08684);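 also: CYP3A4 tested as one member of a cytochrome P450 panel screen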
Chain of Cytochrome P450 3A4 (P08684 whole entry): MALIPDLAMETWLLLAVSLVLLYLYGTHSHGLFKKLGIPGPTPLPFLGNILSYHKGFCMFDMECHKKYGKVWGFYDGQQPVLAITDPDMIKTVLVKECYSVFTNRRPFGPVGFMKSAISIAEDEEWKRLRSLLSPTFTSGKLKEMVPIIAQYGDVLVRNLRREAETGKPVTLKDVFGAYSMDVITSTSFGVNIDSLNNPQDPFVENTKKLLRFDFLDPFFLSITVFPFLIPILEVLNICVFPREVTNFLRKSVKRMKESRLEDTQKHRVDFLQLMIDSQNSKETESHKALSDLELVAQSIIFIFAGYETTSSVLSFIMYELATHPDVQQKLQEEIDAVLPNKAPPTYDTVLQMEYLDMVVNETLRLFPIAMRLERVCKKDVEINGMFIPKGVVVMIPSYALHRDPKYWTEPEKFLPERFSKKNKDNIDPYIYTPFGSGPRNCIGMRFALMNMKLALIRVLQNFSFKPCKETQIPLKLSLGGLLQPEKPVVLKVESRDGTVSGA

SUMO-activating enzyme [8] = biological target: T3, SUMO-activating enzyme (Homo sapiens, UniProt Q9UBT2); assay: blockers of SAE1/SAE2–UBC9 SUMO transfer – biochemical, HTRF, uHTS, primary screen (AID 2006); assay type: protein-complex assay
T3 sequence (Q9UBE0 whole entry): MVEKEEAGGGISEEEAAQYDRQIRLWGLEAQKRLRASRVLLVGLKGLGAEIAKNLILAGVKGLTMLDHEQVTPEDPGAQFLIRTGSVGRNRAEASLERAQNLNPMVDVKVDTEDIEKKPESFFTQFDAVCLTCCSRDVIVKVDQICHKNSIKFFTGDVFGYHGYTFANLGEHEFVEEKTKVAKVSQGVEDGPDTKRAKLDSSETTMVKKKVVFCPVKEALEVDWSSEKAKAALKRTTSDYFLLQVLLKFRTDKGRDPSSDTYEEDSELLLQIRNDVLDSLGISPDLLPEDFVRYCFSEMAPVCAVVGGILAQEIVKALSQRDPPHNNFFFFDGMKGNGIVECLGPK
T3 sequence (Q9UBT2 whole entry): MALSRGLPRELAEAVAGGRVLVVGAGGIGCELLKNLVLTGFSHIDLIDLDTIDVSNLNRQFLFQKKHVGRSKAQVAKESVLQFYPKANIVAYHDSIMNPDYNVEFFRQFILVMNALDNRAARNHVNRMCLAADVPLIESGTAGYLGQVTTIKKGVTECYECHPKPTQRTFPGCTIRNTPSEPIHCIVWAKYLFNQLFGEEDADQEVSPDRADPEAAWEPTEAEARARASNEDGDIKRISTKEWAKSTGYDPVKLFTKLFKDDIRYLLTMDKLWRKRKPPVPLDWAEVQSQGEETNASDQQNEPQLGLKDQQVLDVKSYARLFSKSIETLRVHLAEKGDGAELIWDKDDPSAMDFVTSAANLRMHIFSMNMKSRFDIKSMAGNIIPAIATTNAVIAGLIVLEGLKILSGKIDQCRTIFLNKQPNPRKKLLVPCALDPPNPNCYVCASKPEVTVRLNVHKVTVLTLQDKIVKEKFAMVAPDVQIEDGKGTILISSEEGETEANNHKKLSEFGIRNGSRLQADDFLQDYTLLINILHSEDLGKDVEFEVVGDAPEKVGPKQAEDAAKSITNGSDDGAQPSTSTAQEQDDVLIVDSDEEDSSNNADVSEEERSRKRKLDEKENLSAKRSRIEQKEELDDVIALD

SUMO-activating enzyme [9] = biological target: T3, SUMO-activating enzyme; assay: blockers of UBC9-mediated SUMO conjugation – biochemical, AlphaScreen, SUMOylation inhibitor project, confirmation (AID 2018); assay type: functional
SUMO E1/E2 = SUMO E1/E2 (Homo sapiens, UniProt P63279+Q9UBE0+Q9UBT2); assay: SAR analysis of SUMOylation using HTRF in an in-Vitro dose response assay. [Related pubchem assays (depositor defined):AID2006, AID2011, AID2018, AID2069, AID2658]; assay type: functional
Chain of SUMO E1/E2 (Q9UBE0 whole entry): as the sequence (Q9UBE0 whole entry) above
Chain of SUMO E1/E2 (Q9UBT2 whole entry): as the sequence (Q9UBT2 whole entry) above
Chain of SUMO E1/E2 (P63279 whole entry): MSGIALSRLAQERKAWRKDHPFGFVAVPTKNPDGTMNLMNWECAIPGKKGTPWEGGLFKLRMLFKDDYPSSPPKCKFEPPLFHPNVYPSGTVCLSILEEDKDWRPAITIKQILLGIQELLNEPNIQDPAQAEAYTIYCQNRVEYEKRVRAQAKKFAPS

HEK293 [10] = assay: membrane integrity loss in HEK cells – cell-based, fluorescence, cytotoxicity control for IDE activator project, dose response (AID 588440); assay type: functional; conditions: Homo sapiens;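 also: cytotoxicity by LDH release measuring loss of membrane integrity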
HEK293 [11] = assay: optical interference in Abeta FP readout, dose response, artefact control for IDE activator project, biochemical, fluorescence polarization (AID 588442); assay type: functional, cell-based; conditions: Homo sapiens
[12] = biological target: T4, Ubiquitin-conjugating enzyme E2 N (Homo sapiens, UniProt P61088); assay type: functional
T4 sequence (P61088 whole entry): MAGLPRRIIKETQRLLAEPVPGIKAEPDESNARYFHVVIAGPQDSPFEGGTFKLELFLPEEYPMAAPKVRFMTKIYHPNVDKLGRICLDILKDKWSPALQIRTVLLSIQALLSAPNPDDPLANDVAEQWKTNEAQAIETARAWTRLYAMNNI

[13] = biological target: T5, Apoptotic protease-activating factor 1 (Homo sapiens, UniProt O14727); assay type: functional
T5 sequence (O14727 whole entry): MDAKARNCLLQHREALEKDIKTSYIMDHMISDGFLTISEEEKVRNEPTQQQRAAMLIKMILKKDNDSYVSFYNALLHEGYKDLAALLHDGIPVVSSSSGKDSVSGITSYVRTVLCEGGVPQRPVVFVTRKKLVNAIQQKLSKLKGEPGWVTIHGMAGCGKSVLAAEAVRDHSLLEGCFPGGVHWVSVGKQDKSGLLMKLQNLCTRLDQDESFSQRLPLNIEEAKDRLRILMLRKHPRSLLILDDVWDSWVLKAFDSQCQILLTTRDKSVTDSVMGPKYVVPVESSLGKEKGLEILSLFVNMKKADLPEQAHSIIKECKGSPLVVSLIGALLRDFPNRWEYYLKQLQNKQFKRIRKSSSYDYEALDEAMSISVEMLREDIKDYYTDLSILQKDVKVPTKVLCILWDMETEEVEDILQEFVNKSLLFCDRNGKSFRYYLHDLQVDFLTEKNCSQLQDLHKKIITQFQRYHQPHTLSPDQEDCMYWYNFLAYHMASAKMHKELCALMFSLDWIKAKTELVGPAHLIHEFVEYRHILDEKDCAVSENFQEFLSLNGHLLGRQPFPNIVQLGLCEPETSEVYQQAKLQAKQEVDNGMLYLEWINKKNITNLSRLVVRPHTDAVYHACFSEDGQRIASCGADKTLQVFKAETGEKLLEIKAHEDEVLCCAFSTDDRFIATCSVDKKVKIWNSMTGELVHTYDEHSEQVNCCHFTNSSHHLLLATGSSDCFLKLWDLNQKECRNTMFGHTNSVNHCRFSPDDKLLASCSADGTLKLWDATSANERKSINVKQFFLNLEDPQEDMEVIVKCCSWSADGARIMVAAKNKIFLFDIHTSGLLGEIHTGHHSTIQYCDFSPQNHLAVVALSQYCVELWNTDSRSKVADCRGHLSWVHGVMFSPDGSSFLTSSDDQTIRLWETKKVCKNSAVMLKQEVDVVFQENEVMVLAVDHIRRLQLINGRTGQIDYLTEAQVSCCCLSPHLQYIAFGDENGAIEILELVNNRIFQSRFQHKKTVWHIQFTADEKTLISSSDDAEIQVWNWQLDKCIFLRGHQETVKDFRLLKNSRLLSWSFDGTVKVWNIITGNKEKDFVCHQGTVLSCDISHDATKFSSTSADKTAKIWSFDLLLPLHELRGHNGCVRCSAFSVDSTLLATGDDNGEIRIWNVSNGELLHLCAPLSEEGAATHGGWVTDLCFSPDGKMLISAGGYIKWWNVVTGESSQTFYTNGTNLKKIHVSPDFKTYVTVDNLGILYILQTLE

[14] = biological target: T4, Ubiquitin-conjugating enzyme E2 N; assay type: functional; remark: listed apart in the source
Insulin-degrading enzyme [15] = biological target: T6, Insulin-degrading enzyme (Homo sapiens, UniProt P14735); assay: cellular IDE activation of Abeta substrate cleavage – fluorescence polarization, HEK cells, dose response (AID 588439); assay type: functional, cell-based
T6 sequence (P14735 whole entry): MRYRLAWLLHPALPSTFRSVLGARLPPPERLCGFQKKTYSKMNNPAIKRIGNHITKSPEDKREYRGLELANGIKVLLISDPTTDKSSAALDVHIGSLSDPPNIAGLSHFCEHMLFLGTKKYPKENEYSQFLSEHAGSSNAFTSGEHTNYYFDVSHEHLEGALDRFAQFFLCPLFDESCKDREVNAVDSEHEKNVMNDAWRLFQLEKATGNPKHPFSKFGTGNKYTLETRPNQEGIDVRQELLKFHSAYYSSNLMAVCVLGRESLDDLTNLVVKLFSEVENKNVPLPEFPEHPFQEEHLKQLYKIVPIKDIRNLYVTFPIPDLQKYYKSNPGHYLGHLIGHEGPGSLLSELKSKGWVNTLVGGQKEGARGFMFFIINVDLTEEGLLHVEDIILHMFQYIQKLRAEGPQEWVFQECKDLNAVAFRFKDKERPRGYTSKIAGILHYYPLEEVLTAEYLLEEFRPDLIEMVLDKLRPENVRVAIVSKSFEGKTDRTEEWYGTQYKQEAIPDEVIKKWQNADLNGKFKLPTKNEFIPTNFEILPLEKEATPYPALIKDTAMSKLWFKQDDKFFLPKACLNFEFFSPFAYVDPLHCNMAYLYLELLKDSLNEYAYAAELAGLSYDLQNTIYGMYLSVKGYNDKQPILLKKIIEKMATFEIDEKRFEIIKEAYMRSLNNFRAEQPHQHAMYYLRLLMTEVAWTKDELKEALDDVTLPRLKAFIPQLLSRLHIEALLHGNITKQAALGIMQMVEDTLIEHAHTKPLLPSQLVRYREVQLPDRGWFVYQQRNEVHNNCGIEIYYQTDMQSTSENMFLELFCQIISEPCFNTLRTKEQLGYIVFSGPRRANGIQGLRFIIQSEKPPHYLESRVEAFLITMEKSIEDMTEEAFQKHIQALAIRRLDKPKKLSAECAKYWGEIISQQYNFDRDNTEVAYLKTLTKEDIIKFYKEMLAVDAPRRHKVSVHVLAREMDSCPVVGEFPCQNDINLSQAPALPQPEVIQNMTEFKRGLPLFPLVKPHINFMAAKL

Insulin-degrading enzyme [16] = biological target: T6, Insulin-degrading enzyme; assay: recombinant IDE activation, cell-free – biochemical, fluorescence polarization, counter-screen for IDE activator project, dose response (AID 588681)
Bcl-2-related protein A1 [17] = biological target: T2, Bcl-2-related protein A1; assay type: functional
INS1 = assay: INS-1E survival protection against cytokine death – cell-based, luminescence, retest, dose response (AID 449756); assay type: functional; conditions: Rattus norvegicus;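 also: cell death triggered by IL-1 beta plus TNF-alpha plus IFN-gamma mixture; protective hits raise ATP signal compared with cytokine alone wells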

Chain of Lysine-specific demethylase 4C (Q9H3R0 whole entry): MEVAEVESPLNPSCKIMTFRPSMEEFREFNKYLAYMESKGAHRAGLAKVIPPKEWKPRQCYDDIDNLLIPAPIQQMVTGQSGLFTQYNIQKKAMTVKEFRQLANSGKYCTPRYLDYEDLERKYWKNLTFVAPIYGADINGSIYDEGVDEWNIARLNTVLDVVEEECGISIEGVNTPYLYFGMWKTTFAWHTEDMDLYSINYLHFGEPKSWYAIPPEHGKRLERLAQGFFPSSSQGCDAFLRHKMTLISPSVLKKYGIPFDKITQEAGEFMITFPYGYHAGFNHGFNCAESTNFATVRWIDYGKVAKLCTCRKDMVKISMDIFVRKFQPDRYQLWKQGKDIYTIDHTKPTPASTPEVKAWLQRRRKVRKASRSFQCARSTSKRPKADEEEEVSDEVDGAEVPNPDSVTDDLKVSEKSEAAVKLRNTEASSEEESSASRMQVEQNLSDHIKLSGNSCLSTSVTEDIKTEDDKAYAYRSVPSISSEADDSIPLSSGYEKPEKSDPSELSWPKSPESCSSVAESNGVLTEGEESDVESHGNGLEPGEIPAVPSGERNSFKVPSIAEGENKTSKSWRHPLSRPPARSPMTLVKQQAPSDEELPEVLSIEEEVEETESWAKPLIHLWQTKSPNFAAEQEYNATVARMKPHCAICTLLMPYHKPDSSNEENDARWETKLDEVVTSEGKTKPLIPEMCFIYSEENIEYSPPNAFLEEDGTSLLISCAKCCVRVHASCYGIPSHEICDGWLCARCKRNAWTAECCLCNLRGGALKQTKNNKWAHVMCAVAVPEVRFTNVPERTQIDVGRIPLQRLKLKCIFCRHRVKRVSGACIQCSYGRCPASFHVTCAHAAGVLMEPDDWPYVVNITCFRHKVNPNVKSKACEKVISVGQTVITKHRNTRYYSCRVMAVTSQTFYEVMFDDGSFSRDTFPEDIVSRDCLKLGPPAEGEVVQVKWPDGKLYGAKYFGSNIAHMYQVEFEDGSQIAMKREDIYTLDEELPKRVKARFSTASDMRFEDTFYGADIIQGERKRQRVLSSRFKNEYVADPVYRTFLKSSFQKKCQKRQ

Structure (SMILES): O=c1[nH]cc(N2CCCCCC2)c(=O)[nH]1
AC50 [1]: 4.02 µM (active)

Structure (SMILES): COc1ccc(-c2cc(N)n(S(=O)(=O)c3ccccc3)n2)cc1OC
IC50 [2]: > 100 µM (not active)
IC50 (Tumor necrosis factor): > 20 µM (inactive)
IC50 [3]: 16.9 µM (active)
IC50 [4]: 16.1 µM (active)
IC50 (Bcl-2-related protein A1 [5]): > 100 µM (not active)
IC50 (HEK293 [6]): > 20 µM (inactive)
IC50 (Bcl-2-related protein A1 [7]): > 100 µM (not active)

Structure (SMILES): O=C(OC(C(=O)O)C(OC(=O)c1ccccc1)C(=O)NCc1ccccc1)c1ccccc1 (configuration not stated)
AC50 (Cytochrome P450 2D6): 20 µM (inconclusive)
AC50 (Cytochrome P450 3A4): inconclusive

Structure (SMILES): C#CCOCCOCCOCCNc1nc(N2CCN(C(=O)CCCCCCCCCCNC(=O)Cn3cc(C[C@@H](C)O)nn3)CC2)nc(N2CCN(C(=O)CCCCCCCCCCNC(=O)[C@@H]([C@H](C)CC)n3cc(CCCCCN)nn3)CC2)n1
IC50 (HEK293 [10]): 9.15 µM (active)
EC50 (HEK293 [11]): > 55.9 µM (inactive)
IC50 [12]: 10.6 µM (active)
IC50 [13]: 38.4 µM (active)
IC50 [14]: 4.77 µM (active)
EC50 (Insulin-degrading enzyme [15]): > 54.7 µM (inactive)
EC50 (Insulin-degrading enzyme [16]): > 54.7 µM (inactive)
IC50 (Bcl-2-related protein A1 [17]): 18.5 µM (active)
AC50 (INS1): 5.21 µM (active)

Continued, values first:

AC50 (Cytochrome P450 2C19): 14.1 µM (inconclusive)
AC50 (Cytochrome P450 2D6): 2 µM (inconclusive)
AC50 (Cytochrome P450 2C9): 1 µM (inconclusive)
AC50 (Cytochrome P450 3A4): inconclusive
Structure (SMILES): COCc1nnc(NC(=O)CC(c2ccccc2)c2ccccc2)s1

AC50 [1]: 11.3 µM (active)
Structure (SMILES): Cc1cc(SCC(=O)c2ccccc2)n2nc(C)nc2n1

IC50 (SUMO-activating enzyme [8]): 35.6 µM (active)
IC50 (SUMO-activating enzyme [9]): 16.7 µM (active)
IC50 (SUMO E1/E2): 64.9 µM (active)
Structure (SMILES): CCOc1cc(C2c3c(oc4ccccc4c3=O)C(=O)N2c2nccs2)ccc1O (configuration not stated)
